Assay results from US20230365592A1 (Agios Pharmaceuticals, Inc., priority 2022, published 2023).

Biological target: T1, human PAH with the R408W mutation (Homo sapiens, UniProt P00439, R408W)
T1 construct: expressed in transfected cells
T1 sequence (P00439 1-452 R408W): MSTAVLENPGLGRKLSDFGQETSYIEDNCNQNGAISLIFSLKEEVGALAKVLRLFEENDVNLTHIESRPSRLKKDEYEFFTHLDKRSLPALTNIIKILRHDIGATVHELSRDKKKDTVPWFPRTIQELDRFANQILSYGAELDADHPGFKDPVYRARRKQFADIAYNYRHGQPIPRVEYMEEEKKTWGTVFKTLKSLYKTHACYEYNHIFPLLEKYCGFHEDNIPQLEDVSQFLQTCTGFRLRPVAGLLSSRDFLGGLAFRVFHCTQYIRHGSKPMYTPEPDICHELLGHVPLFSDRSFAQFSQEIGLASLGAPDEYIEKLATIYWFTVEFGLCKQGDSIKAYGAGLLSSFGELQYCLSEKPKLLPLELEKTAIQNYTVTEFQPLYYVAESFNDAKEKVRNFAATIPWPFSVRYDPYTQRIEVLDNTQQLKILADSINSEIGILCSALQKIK
Assay: Cell Based Phenylalanine Flux Assay;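 note: after compound treatment, cells received sepiapterin plus isotope-labelled Phenylalanine for 4 hours, then labelled Tyrosine in the medium was quantified, 10-point 2-fold dilution series run in duplicate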
Conditions: A375 cells expressing human R408W PAH; 24 hrs compound incubation; 13C-Tyrosine by LC-MS; average where tested multiple times; read-out: AC50

Compound	AC50 [nM]
Cc1nc(C(C)(C)O)oc1C(=O)N1CCc2[nH]cnc2[C@H]1c1cc2c(C)cccn2n1 [Example 754, (S)-(2-(2-hydroxypropan-2-yl)-4-methyloxazol-5-yl)(4-(4-methylpyrazolo[1,5-a]pyridin-2-yl)-6,7-dihydro-1H-imidazo[4,5-c]pyridin-5(4H)-yl)methanone]	< 500
CC(C)(O)c1nc(Cl)c(C(=O)N2CCc3[nH]cnc3[C@H]2c2cc3c(F)cccn3n2)o1 [Example 756, (S)-(4-chloro-2-(2-hydroxypropan-2-yl)oxazol-5-yl)(4-(4-fluoropyrazolo[1,5-a]pyridin-2-yl)-6,7-dihydro-1H-imidazo[4,5-c]pyridin-5(4H)-yl)methanone]	< 500
CC(C)(O)c1nc(Cl)c(C(=O)N2CCc3[nH]cnc3[C@@H]2c2cc3c(F)cccn3n2)o1 [Example 757, (R)-(4-chloro-2-(2-hydroxypropan-2-yl)oxazol-5-yl)(4-(4-fluoropyrazolo[1,5-a]pyridin-2-yl)-6,7-dihydro-1H-imidazo[4,5-c]pyridin-5(4H)-yl)methanone]	1000 to 5000
O=C(c1ocnc1C(F)F)N1CCc2[nH]cnc2[C@H]1c1cc2c(F)cccn2n1 [Example 758, (S)-(4-(difluoromethyl)oxazol-5-yl)(4-(4-fluoropyrazolo[1,5-a]pyridin-2-yl)-6,7-dihydro-1H-imidazo[4,5-c]pyridin-5(4H)-yl)methanone]	< 500
O=C(c1ocnc1C(F)F)N1CCc2[nH]cnc2[C@@H]1c1cc2c(F)cccn2n1 [Example 759, (R)-(4-(difluoromethyl)oxazol-5-yl)(4-(4-fluoropyrazolo[1,5-a]pyridin-2-yl)-6,7-dihydro-1H-imidazo[4,5-c]pyridin-5(4H)-yl)methanone]	1000 to 5000
O=C(c1cnco1)N1CCc2[nH]cnc2[C@H]1c1cc2c(F)cccn2n1 [Example 760, (S)-(4-(4-fluoropyrazolo[1,5-a]pyridin-2-yl)-6,7-dihydro-1H-imidazo[4,5-c]pyridin-5(4H)-yl)(oxazol-5-yl)methanone]	1000 to 5000
O=C(c1cnco1)N1CCc2[nH]cnc2[C@@H]1c1cc2c(F)cccn2n1 [Example 761, (R)-(4-(4-fluoropyrazolo[1,5-a]pyridin-2-yl)-6,7-dihydro-1H-imidazo[4,5-c]pyridin-5(4H)-yl)(oxazol-5-yl)methanone]	1000 to 5000
Cn1nc(Cl)nc1C(=O)N1CCc2[nH]cnc2[C@H]1c1cc2c(F)cccn2n1 [Example 762, (S)-(3-chloro-1-methyl-1H-1,2,4-triazol-5-yl)(4-(4-fluoropyrazolo[1,5-a]pyridin-2-yl)-6,7-dihydro-1H-imidazo[4,5-c]pyridin-5(4H)-yl)methanone]	< 500
Cn1nc(Cl)nc1C(=O)N1CCc2[nH]cnc2[C@@H]1c1cc2c(F)cccn2n1 [Example 763, (R)-(3-chloro-1-methyl-1H-1,2,4-triazol-5-yl)(4-(4-fluoropyrazolo[1,5-a]pyridin-2-yl)-6,7-dihydro-1H-imidazo[4,5-c]pyridin-5(4H)-yl)methanone]	1000 to 5000
Cn1nc(C(F)F)nc1C(=O)N1CCc2[nH]cnc2[C@H]1c1cc2c(F)cccn2n1 [Example 764, (S)-(3-(difluoromethyl)-1-methyl-1H-1,2,4-triazol-5-yl)(4-(4-fluoropyrazolo[1,5-a]pyridin-2-yl)-6,7-dihydro-1H-imidazo[4,5-c]pyridin-5(4H)-yl)methanone]	500 to 1000
Cn1nc(C(F)F)nc1C(=O)N1CCc2[nH]cnc2[C@@H]1c1cc2c(F)cccn2n1 [Example 765, (R)-(3-(difluoromethyl)-1-methyl-1H-1,2,4-triazol-5-yl)(4-(4-fluoropyrazolo[1,5-a]pyridin-2-yl)-6,7-dihydro-1H-imidazo[4,5-c]pyridin-5(4H)-yl)methanone]	1000 to 5000
O=C(c1cnco1)N1CCc2[nH]cnc2[C@H]1c1cc2c(Cl)cccn2n1 [Example 766, (S)-(4-(4-chloropyrazolo[1,5-a]pyridin-2-yl)-6,7-dihydro-1H-imidazo[4,5-c]pyridin-5(4H)-yl)(oxazol-5-yl)methanone]	< 500
O=C(c1cnco1)N1CCc2[nH]cnc2[C@@H]1c1cc2c(Cl)cccn2n1 [Example 767, (R)-(4-(4-chloropyrazolo[1,5-a]pyridin-2-yl)-6,7-dihydro-1H-imidazo[4,5-c]pyridin-5(4H)-yl)(oxazol-5-yl)methanone]	> 5000
Cc1cccn2nc([C@@H]3c4nc[nH]c4CCN3C(=O)c3cnco3)cc12 [Example 768, (S)-(4-(4-methylpyrazolo[1,5-a]pyridin-2-yl)-6,7-dihydro-1H-imidazo[4,5-c]pyridin-5(4H)-yl)(oxazol-5-yl)methanone]	< 500
Cc1ncoc1C(=O)N1CCc2[nH]cnc2[C@H]1c1cc2c(C)cccn2n1 [Example 770, (S)-(4-methyloxazol-5-yl)(4-(4-methylpyrazolo[1,5-a]pyridin-2-yl)-6,7-dihydro-1H-imidazo[4,5-c]pyridin-5(4H)-yl)methanone]	< 500
Cc1ncoc1C(=O)N1CCc2[nH]cnc2[C@@H]1c1cc2c(C)cccn2n1 [Example 771, (R)-(4-methyloxazol-5-yl)(4-(4-methylpyrazolo[1,5-a]pyridin-2-yl)-6,7-dihydro-1H-imidazo[4,5-c]pyridin-5(4H)-yl)methanone]	1000 to 5000
O=C(c1ocnc1C(F)(F)F)N1CCc2[nH]cnc2[C@H]1c1cc2c(F)cccn2n1 [Example 772, (S)-(4-(4-fluoropyrazolo[1,5-a]pyridin-2-yl)-6,7-dihydro-1H-imidazo[4,5-c]pyridin-5(4H)-yl)(4-(trifluoromethyl)oxazol-5-yl)methanone]	< 500
O=C(c1ocnc1C(F)(F)F)N1CCc2[nH]cnc2[C@@H]1c1cc2c(F)cccn2n1 [Example 773, (R)-(4-(4-fluoropyrazolo[1,5-a]pyridin-2-yl)-6,7-dihydro-1H-imidazo[4,5-c]pyridin-5(4H)-yl)(4-(trifluoromethyl)oxazol-5-yl)methanone]	500 to 1000
Cc1ncoc1C(=O)N1CCc2[nH]cnc2[C@H]1c1cc2c(F)cccn2n1 [Example 774, (S)-(4-(4-fluoropyrazolo[1,5-a]pyridin-2-yl)-6,7-dihydro-1H-imidazo[4,5-c]pyridin-5(4H)-yl)(4-methyloxazol-5-yl)methanone]	< 500
Cc1ncoc1C(=O)N1CCc2[nH]cnc2[C@@H]1c1cc2c(F)cccn2n1 [Example 775, (R)-(4-(4-fluoropyrazolo[1,5-a]pyridin-2-yl)-6,7-dihydro-1H-imidazo[4,5-c]pyridin-5(4H)-yl)(4-methyloxazol-5-yl)methanone]	> 5000
O=C(c1ccnn1C(F)F)N1CCc2[nH]cnc2[C@H]1c1cc2c(F)cccn2n1 [Example 776, (S)-(1-(difluoromethyl)-1H-pyrazol-5-yl)(4-(4-fluoropyrazolo[1,5-a]pyridin-2-yl)-6,7-dihydro-1H-imidazo[4,5-c]pyridin-5(4H)-yl)methanone]	< 500
O=C(c1ccnn1C(F)F)N1CCc2[nH]cnc2[C@@H]1c1cc2c(F)cccn2n1 [Example 777, (R)-(1-(difluoromethyl)-1H-pyrazol-5-yl)(4-(4-fluoropyrazolo[1,5-a]pyridin-2-yl)-6,7-dihydro-1H-imidazo[4,5-c]pyridin-5(4H)-yl)methanone]	> 5000
COc1cccn2nc([C@@H]3c4nc[nH]c4CCN3C(=O)c3nnc(-c4ccccn4)o3)cc12 [Example 779, (S)-(4-(4-methoxypyrazolo[1,5-a]pyridin-2-yl)-6,7-dihydro-1H-imidazo[4,5-c]pyridin-5(4H)-yl)(5-(pyridin-2-yl)-1,3,4-oxadiazol-2-yl)methanone]	500 to 1000
Cn1nc(C(F)F)nc1C(=O)N1CCc2[nH]cnc2[C@H]1c1cc2c(Cl)cccn2n1 [Example 780, (S)-(4-(4-chloropyrazolo[1,5-a]pyridin-2-yl)-6,7-dihydro-1H-imidazo[4,5-c]pyridin-5(4H)-yl)(3-(difluoromethyl)-1-methyl-1H-1,2,4-triazol-5-yl)methanone]	< 500
O=C(c1ccnn1C(F)F)N1CCc2[nH]cnc2[C@H]1c1cc2c(Cl)cccn2n1 [Example 782, (S)-(4-(4-chloropyrazolo[1,5-a]pyridin-2-yl)-6,7-dihydro-1H-imidazo[4,5-c]pyridin-5(4H)-yl)(1-(difluoromethyl)-1H-pyrazol-5-yl)methanone]	< 500
Cc1c([C@@H]2c3nc[nH]c3CCN2C(=O)c2ocnc2C(F)F)nn2ccccc12 [Example 784, (S)-(4-(difluoromethyl)oxazol-5-yl)(4-(3-methylpyrazolo[1,5-a]pyridin-2-yl)-6,7-dihydro-1H-imidazo[4,5-c]pyridin-5(4H)-yl)methanone]	< 500
Cc1c([C@H]2c3nc[nH]c3CCN2C(=O)c2ocnc2C(F)F)nn2ccccc12 [Example 785, (R)-(4-(difluoromethyl)oxazol-5-yl)(4-(3-methylpyrazolo[1,5-a]pyridin-2-yl)-6,7-dihydro-1H-imidazo[4,5-c]pyridin-5(4H)-yl)methanone]	1000 to 5000
Cc1c([C@@H]2c3nc[nH]c3CCN2C(=O)c2oc(C(C)(C)O)nc2C(F)F)nn2ccccc12 [Example 786, (S)-(4-(difluoromethyl)-2-(2-hydroxypropan-2-yl)oxazol-5-yl)(4-(3-methylpyrazolo[1,5-a]pyridin-2-yl)-6,7-dihydro-1H-imidazo[4,5-c]pyridin-5(4H)-yl)methanone]	< 500
